Results reported in US7910575B2, “Prophylactic or therapeutic agents for allergic ophthalmic diseases or allergic nasal diseases, comprising tricyclic triazolobenzazepine derivative” (Meiji Seika Kaisha, Ltd., priority 2006, dated 2011).
Marks after values point to notes of the source that are not given here.

Tests used:
[1] = tested on: allergic rhinitis; assay: Prophylactic effect on allergic rhinitis, oral administration; assay type: in vivo, rat; details: 15 min before antigen administration
Method: The prophylactic effect of compound B on allergic rihinitis in the same manner as in Test Example 4-1, except that compound B was suspended in hydroxypropylmethylcellulose and the suspension was orally administered. The medicament was administered 15 min before the administration of the antigin (start of allergy).

[2] = WO 99/16770; cited from earlier work
[3] = tested on: rabbit eye (conjunctiva); assay: Severe eye irritation test using rabbits; assay type: in vivo; details: 1%, instillation six times per day at 30 min intervals for two days

Compound: COc1cc2[nH]c(=O)c3nn(C(OC(=O)OC(C)C)C(C)C)nc3c(=O)c2cc1OC (stereo not shown) [Compound B, 2-(1-Isopropoxycarbonyloxy-2-methylpropyl)-7,8-dimethoxy-4(5H),10-dioxo-2H-1,2,3-triazolo[4,5-c][1]benzazepine]
- Increase in dye leakage amount Inhibition ratio ([1]; 1 mg/kg (200 μg/rat)): 46.3% **
- Increase in dye leakage amount Inhibition ratio ([1]; 5 mg/kg (1000 μg/rat)): 81.9% **
- improvement of absorption upon oral administration as compared with compound A [2]: by a factor of seven
- eye irritation [3]: only slight reddening of the conjunctiva was observed
